Laboratory results published in the supplement of paper PMC10307832.

Legend:
Assay in all cases: relative viability (nuclei count vs DMSO), 5 days (fraction); higher = more cells survive
[1] = compound: CC(C)C[C@@H](C(=O)N[C@H](C(=O)OC1CCCC1)c1ccccc1)[C@H](O)C(=O)NO [Tosedostat] + N=C(N)NC(=N)NCCc1ccccc1 [Phenformin] (partner 250 µM)
In short: (§1)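 Values are medians from duplicate plates. Each reflects relative viability, defined as the nuclei count of treated wells over that of vehicle wells. Lung cancer cell lines in 1536-well plates were pin-tool dosed one day after seeding with one drug alone or with a fixed anchor-drug dose plus five library-drug doses (not always all listed) in √10 steps, then fixed, stained and imaged at 4× after 5 days.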

[2] = compound: CC1=NN=C(O1)C2=NN=C(C=C2)N3CCC(CC3)OC4=C(C=CC(=C4)F)Cl + O=C(CCCCCCC(=O)Nc1ccccc1)NO [Vorinostat] (partner 1 µM)
In short: as §1

[3] = compound: CC(C)C[C@@H](C(=O)N[C@H](C(=O)OC1CCCC1)c1ccccc1)[C@H](O)C(=O)NO [Tosedostat] + CC(=O)Nc1cccc(-n2c(=O)n(C3CC3)c(=O)c3c(Nc4ccc(I)cc4F)n(C)c(=O)c(C)c32)c1 [Trametinib] (partner 0.02 µM)
In short: as §1

[4] = compound: CC(C)C[C@@H](C(=O)N[C@H](C(=O)OC1CCCC1)c1ccccc1)[C@H](O)C(=O)NO [Tosedostat] + Cc1nc(NC(=O)N2CCC[C@H]2C(N)=O)sc1-c1ccnc(C(C)(C)C(F)(F)F)c1 [Alpelisib] (partner 2 µM)
In short: as §1

Cell Line	relative viability ([1]; first compound 0.02 µM)	relative viability ([1]; first compound 0.06325 µM)	relative viability ([1]; first compound 0.2 µM)	relative viability ([1]; first compound 0.6325 µM)	relative viability ([1]; first compound 2 µM)	relative viability ([2]; first compound 0.253 µM)	relative viability ([2]; first compound 0.8 µM)	relative viability ([2]; first compound 2.53 µM)	relative viability ([2]; first compound 8 µM)	relative viability ([3]; first compound 0.02 µM)	relative viability ([3]; first compound 0.06325 µM)	relative viability ([3]; first compound 0.2 µM)	relative viability ([3]; first compound 0.6325 µM)	relative viability ([3]; first compound 2 µM)	relative viability ([4]; first compound 0.02 µM)	relative viability ([4]; first compound 0.06325 µM)	relative viability ([4]; first compound 0.2 µM)	relative viability ([4]; first compound 0.6325 µM)	relative viability ([4]; first compound 2 µM)
NCI-H1355	0.43	0.445	0.457	0.38	0.377	0.405	0.478	0.625	0.558	0.344	0.388	0.44	0.386	0.406	0.704	0.798	0.854	0.667	0.688
NCI-H1395	0.418	0.424	0.419	0.41	0.446	0.656	0.563	0.671	0.593	0.968	1.07	1.12	1.05	1.06	1.03	0.922	0.965	0.791	0.876
NCI-H1437	0.28	0.28	0.295	0.332	0.299	0.492	0.491	0.523	0.376	0.552	0.523	0.631	0.469	0.547	0.984	1.05	0.969	0.828	0.506
NCI-H1651	0.324	0.328	0.293	0.267	0.306	0.431	0.241	0.389	0.336	0.777	0.789	0.897	0.869	0.742	0.832	0.92	0.996	0.995	0.924
NCI-H1666	0.547	0.527	0.554	0.612	0.567	0.735	0.862	0.868	0.864	0.962	0.856	0.929	0.91	0.851	0.99	0.841	1.06	0.995	0.951
NCI-H1734	0.453	0.399	0.393	0.372	0.345	0.721	0.692	0.721	0.737	0.778	0.666	0.664	0.502	0.572	0.672	0.647	0.742	0.593	0.646
NCI-H1755	0.599	0.574	0.571	0.602	0.406	0.538	0.553	0.611	0.538	0.782	0.837	0.813	0.869	0.744	0.941	0.9	0.922	0.864	0.883
NCI-H1793	0.252	0.321	0.284	0.31	0.203	0.683	0.567	0.79	0.666	0.507	0.49	0.445	0.437	0.448	0.691	0.851	0.567	0.649	0.673
